Several values for one entry are separate records, joined by “and”; a condition that tells them apart may be missing. Equal entries are not always repeated. Entries after “also recorded” stand apart in the source; their conditions may differ. Where two headings read alike, the source gives them in different places.
Experiments:
PXR = PXR (Homo sapiens, UniProt O75469); type: cell-based
Procedure: (§1) Cultured cells were fixed using 4% paraformaldehyde for 15 minutes at room temperature. […] Following washes, cells were incubated with secondary antibodies for 1 hour at room temperature in blocking buffer (Table 10, hereinbelow). Hoechst staining was performed using bisBenzimide H33342 for 2 minutes. Imaging was performed on a Zeiss LSM 700 confocal microscope.

hESC-derived hepatocytes [1] = type: cell-based, human; details: LA replaced with 9CLA, with 100 μM OA
[2] = system: PXR and its CYP2C9 and CYP3A4 target genes
hESC-derived hepatocytes [3] = test: Albumin, AFP and ApoB100 production (ELISA); type: cell-based, human; details: cells treated with OA and LA; 24-hours treatment with GW9662
Procedure: Culture media samples were collected daily and stored at −80° C. Albumin and AFP concentrations were analyzed using Human Albumin ELISA quantitation set (Bethyl laboratories, Montgomery, Tex.) and Human AFP (alpha-fetoprotein) Quantikine ELISA kit (R&D Systems, Minneapolis, Minn.), according to manufacturer directions. […] Data was normalized to total cellular protein utilizing the Bradford assay.

hESC-derived hepatocytes [4] = test: qRT-PCR of nuclear receptors, lipid metabolism, albumin and mitochondrial genes after fatty acid treatment; type: cell-based, human
hESC-derived hepatocytes [5] = test: HSP60 immunofluorescence and CellProfiler analysis of mitochondrial network; type: cell-based, human
Procedure: as §1

hESC-derived hepatocytes [6] = type: cell-based, human; details: 50 μM LCA
[7] = system: CYP450 (CYP1A, CYP3A4, CYP2C9); details: human, 72 h
Procedure: CYP1A activity was evaluated utilizing EROD (ethoxyresorufin-o-deethylase) as previously described (Behnia, 2000). […] Briefly, cultures were incubated with 100 μM BFC (7-benzyloxy-4-trifluoromethylcoumarinat), or 10 μM MFC (7-methoxy-4-trifluoromethylcoumarin) for 1 hour at 37° C. Supernatant samples were collected every 30 minutes for 2.5 hours. The reactions were stopped by collection of the incubation medium. Metabolite conjugates formed via phase II activity were hydrolyzed by incubation of medium samples with β-glucuronidase/arylsulfatase for 2 hours at 37° C. Samples were diluted 1:1 in quenching solution and HFC (7-hydroxy-4-trifluoromethylcoumarin), the respective fluorescent metabolite formation, was measured at the appropriate wavelengths (410/510) and normalized to total protein determined by Bradford.
CYP450 activity was quantified as described above at the end of the stimulation period.

[8] = system: LCA- and MK4-treated hESC-derived hepatocytes
Procedure: Cultured cells were exposed to different concentrations of compounds dissolved in culture medium for 24 hours at 37° C. Cell viability was determined utilizing LIVE/DEAD Cytotoxicity kit (Molecular Probes, Eugene, Oreg.) according to manufacturer instructions. In brief, cultures were incubated with 2 μM Calcein AM and 3 μM ethidium homodimer-1 for 25 minutes. Hydrolysis by functional intracellular esterases causes live cells to fluoresce green, while the punctured membranes of dead cells permit ethidium homodimer-1 to bind DNA and fluoresce red. Cellular viability was calculated by live to dead ratio and normalized to negative control. TC50 values were quantified using GraphPad Prism software (La Jolla, Calif.).
Differentiation was adapted to 96-well plates (General Materials and Experimental Methods above). Cells were exposed to increasing concentrations of compounds on day 16, and viability was quantified using fluorescence Live/Dead staining after 24 hours of exposure (FIG. 4D).

hESC-derived hepatocytes [9] = details: human, 24 h
Procedure: Quantification of intracellular lipids was performed using LipidTOX™ Green Neutral Lipid Stain (Molecular Probes). […] Staining intensity was normalized to negative control. […] Incubation media was removed and cultures washed with ice-cold PBS containing calcium and magnesium. The number of green CDF particles was normalized to the number of Hoechst nuclei as an indicator of functional bile canaliculi. Particle and nuclei counting was performed utilizing the ImageJ particle analyzer.

hESC-derived hepatocytes [10] = system: hESC-derived hepatocytes
Procedure: Toxicological endpoints were evaluated for nine hepatotoxic compounds at TC20 values identified above. Quantitation of apoptotic cells was performed utilizing DeadEnd™ fluorometric TUNEL System (Promega, Madison, Wis.) according to manufacturer instructions. […] Cell were permeabilized and exposed to fluorescein-12-dUTP and terminal deoxynucleotidyl transferase (TdT), dying apoptotic nuclei green. The reaction was subsequently stopped and the cells counterstained for DAPI. A percent apoptotic nucleus was calculated by dividing the number of TUNEL to DAPI positive nuclei.

Sequence of PXR (O75469 whole entry): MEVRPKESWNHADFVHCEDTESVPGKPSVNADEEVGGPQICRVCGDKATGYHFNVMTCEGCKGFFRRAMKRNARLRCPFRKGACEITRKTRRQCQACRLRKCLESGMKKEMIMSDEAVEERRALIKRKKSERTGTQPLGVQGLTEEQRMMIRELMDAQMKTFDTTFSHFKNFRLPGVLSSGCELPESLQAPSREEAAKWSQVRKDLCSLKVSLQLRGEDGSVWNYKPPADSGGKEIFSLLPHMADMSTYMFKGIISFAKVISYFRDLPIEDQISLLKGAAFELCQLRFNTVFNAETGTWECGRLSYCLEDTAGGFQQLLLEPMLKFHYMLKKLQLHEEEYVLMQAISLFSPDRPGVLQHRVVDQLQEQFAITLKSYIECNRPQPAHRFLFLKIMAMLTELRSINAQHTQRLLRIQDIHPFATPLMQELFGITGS

With CCCCCC/C=C/C=C\CCCCCCCC(=O)O [9CLA, cis-9,trans-11-octadecadienoic acid] the “increase in PXR nuclear localization compared to untreated cells” value (PXR; 100 μM each, 9CLA replaces LA, with OA) was 50%, the “additional increase in PXR nuclear localization when LA is replaced with 9CLA” value (PXR; with OA) was 30% and 40% and the “mitochondrial respiration relative to primary human hepatocytes” value (hESC-derived hepatocytes [1]) was 60%. For the same compound, the “CYP3A4 and CYP2C9 gene expression” value ([2]; hepatocytes) was “increased significantly”.
With C[S+](C)[O-] [DMSO, Dimethyl sulfoxide] the “CYP450 gene expression” value ([2]; human, hepatocytes, 2 %) was “increased expression of all CYP450 enzymes measured” and the “increase in expression of PXR and most CYP450 enzymes checked” value ([2]; human, hepatocytes, 2 %) was 2-6 fold.
In the case of O=C(Nc1ccccc1)c1cc([N+](=O)[O-])ccc1Cl [GW9662], the “effect on PXR nuclear localization” value (PXR; fatty acid treated cells) is reported as “down-regulated; also recorded: significant decrease”, the “effect on albumin secretion / albumin gene expression and production” value (hESC-derived hepatocytes [3]) is reported as “significant decrease; also recorded: blocked” and the “effect on expression of genes involved in lipid metabolism” value (hESC-derived hepatocytes [4]; 24-hours treatment, OA and LA treated cells) is reported as “inhibited”. For the same compound, the “PGC1, MFN2 and FIS1 gene expression” value (hESC-derived hepatocytes [4]; fatty acid treated cells) was “decrease”, the “effect on fatty acid induced elongation and narrowing of mitochondria” value (hESC-derived hepatocytes [5]) was “reversed the effect” and the “CYP3A4 and CYP2C9 gene expression” value ([2]; fatty acid treated cells) was “down-regulated”.
In the case of C[C@H](CCC(=O)O)[C@H]1CC[C@H]2[C@@H]3CC[C@@H]4C[C@H](O)CC[C@]4(C)[C@H]3CC[C@]12C [LCA, lithocholic acid], the “toxicity to differentiating cells” value (hESC-derived hepatocytes [6]) is reported as “mild toxicity”.
CC(C)=CCC/C(C)=C/CC/C(C)=C/CC/C(C)=C/CC1=C(C)C(=O)c2ccccc2C1=O [MK4, menaquinone-4] was tested, and the PXR expression induction ([2]; 10 μM, final maturation step) was 1.9 fold.
With COc1ccc2[nH]c([S+]([O-])Cc3ncc(C)c(OC)c3C)nc2c1 (centres unmarked) [Omeprazole, omeprazole] the “induction of BFC metabolism” value [7] was 3 fold, the “induction of EROD metabolism” value ([7]; 50 μM) was 9 fold and the “induction of CYP450 activity” value ([7]; hepatocytes, 50 μM) was “preferentially induced CYP1A”.
With CC(=O)Oc1ccccc1C(=O)O [acetylsalicylic acid] the “TC20 concentration used for endpoint assays” value (shortened to “TC20 concentration used”) ([8]; human, 24 h) was 2000 µM and the “increase in intracellular lipids compared to control” value (shortened to “increase in intracellular lipids”) (hESC-derived hepatocytes [9]) was 25-26 fold.
For CN(C)CCCN1c2ccccc2Sc2ccc(Cl)cc21 [chlorpromazine], the “TC20 concentration used” value ([8]; human, 24 h) was 45 µM, the “decrease in number of CDF-positive bile canaliculi compared to control” value (hESC-derived hepatocytes [9]) was 13-30 fold and the “loss of epithelial polarization” value (hESC-derived hepatocytes [9]) was 14 fold.
In the case of O=C(O)Cc1ccccc1Nc1c(Cl)cccc1Cl [diclofenac], the “TC20 concentration used” value ([8]; human) is reported as 300 µM, the “DNA fragmentation compared to control” value (hESC-derived hepatocytes [10]) is reported as “significant increase” and the “increase in percent of apoptotic nuclei compared to control” value (hESC-derived hepatocytes [10]; human, 24 h) is reported as 3-4 fold.
In the case of OC[C@@H](O)[C@@H](O)[C@H](O)[C@H](O)CO [mannitol], the “toxicity” value [8] is reported as “no adverse effects”.
COc1ccc2[nH]cc(CCNC(C)=O)c2c1 [melatonin] was tested, and the “toxicity” value [8] was “clear toxicity”, the TC50 ([8]; human, 24 h) was 0.7 ± 0.2 mM and the “increase in intracellular lipids” value (hESC-derived hepatocytes [9]) was 30 fold. The “intracellular lipid accumulation” value (hESC-derived hepatocytes [9]) was “significant (P<0.006) increase” and the “effect on cell viability” value (hESC-derived hepatocytes [10]) was “not affecting”.
In the case of CC1CCC(C(C)C)C(O)C1 (centres unmarked) [menthol], the “toxicity” value [8] is reported as “no adverse effects”.
Cc1c(C)c2c(c(C)c1O)CCC(C)(COc1ccc(CC3SC(=O)NC3=O)cc1)O2 (centres unmarked) [troglitazone] was tested, and the “TC20 concentration used” value ([8]; human, 24 h) was 80 µM, the “decrease in number of CDF-positive bile canaliculi compared to control” value (hESC-derived hepatocytes [9]) was 13-30 fold and the “loss of epithelial polarization” value (hESC-derived hepatocytes [9]) was 14 fold.
With CCCC(CCC)C(=O)O [valproic acid] the “increase in intracellular lipids” value (hESC-derived hepatocytes [9]) was 25-26 fold.
aflatoxin B1 was tested, and the “TC20 concentration used” value [8] was 2 µM and the “DNA fragmentation compared to control” value (hESC-derived hepatocytes [10]) was “significant increase”.

Source: US10772863B2, “Methods of inducing metabolic maturation of human pluripotent stem cells— derived hepatocytes” (priority 2016, dated 2020)
